“And” between values parts separate entries of the source, which are not always exact repeats. Equal values may be shown once.
Experiments:
corneal kindled seizures = experiment: Corneal kindled mouse model; format: in vivo; conditions: mice, 100 mg/kg i.p., 0.25 hrs
Method: Mouse studies were performed by NIH Anticonvulsant Screening Program at the National Institute of Neurological Disorders and Stroke (Stables and Kupferberg, 1997) according to the established NIH experimental procedures outlined below. Compounds were delivered into mice by i.p. injection at a dose of 100 mg/kg in sterile 5% DMSO, 95% Neobee (Josey et al., 2013). One of four methods for seizure induction was subsequently administered to mice at 0.25, 0.5, 1, 2 and 4 h after treatment with compound. (1) Subcutaneous PTZ seizure threshold test. PTZ was administered at a concentration of 85 mg/kg, into the loose fold of skin in the midline of the neck. […] (2) Maximal electroshock test. 60 Hz of 50 mA alternating current was delivered for 0.2 s by corneal electrodes. Mice were considered protected from seizures when the hindlimb tonic extensor was absent (White et al., 1995). (3) Minimal clonic seizure (6 Hz) test. 6 Hz of 32 mA or 44 mA alternating current was delivered for 3 s by corneal electrodes to elicit a psychomotor seizure. Mice were considered protected from seizures when the automatistic behaviors were absent (Barton et al., 2001). (4) Corneal kindled mouse model. […]

[1] = Chronic toxicity evaluation in mice (blood count and chemistry); format: in vivo, mouse; conditions: for blood count and chemistry parameters versus vehicle / weight loss, signs of pain or distress: mice, 50 mg/kg i.p. daily, three weeks
Method: Adult (12 weeks of age) mice (Balb/cByJ, 17-20 g, Jackson Laboratory), were housed in temperature-controlled conditions under a light/dark photocycle with food and water supplied ad libitum. Mice were divided randomly into three groups. The first group (n=3) was injected i.p. with compound 2q at 50 mg/kg dissolved in sterile 5% DMSO, 95% Neobee (Spectrum Chemical) (Allen et al., 2006). The second group (n=3) was injected i.p. with compound 2j at 50 mg/kg dissolved in sterile 5% DMSO, 95% Neobee. The third, vehicle control group (n=2) was injected i.p. with an equivalent volume of sterile 5% DMSO, 95% Neobee. All animals were injected between 11:00 a.m. and 12:00 p.m. Animals were sacrificed by CO2 after three weeks of injections. Blood was collected by cardiac puncture and standard blood count and chemistry was evaluated by the MUSC/VA Veterinary Diagnostic Laboratory (Charleston, S.C.). All animal and treatment protocols were in compliance with the Guide for the Care and Use of Laboratory Animals as adopted and promulgated by the National Institutes of Health (Institute of Laboratory Animal Resources, 1996).
Preliminary in vivo toxicity was assessed for compounds 2q and 2j in mice. […] Adult mice were injected intraperitoneally (i.p.) daily. […] After three weeks of chronic, high dose injections, animals were sacrificed and standard blood count and chemistry analyses performed.

HT-22 neuronal cells = experiment: Respirometry (OCR, ECAR; Seahorse XF-96); format: cell-based, mouse; design: ECAR (glycolysis), difference from control: unit not given here; conditions: HT-22 cells, mean±SEM; for basal cellular respiration, difference in OCR from control: 1 h treatment, OCR as percentage of pre-treatment value; for basal mitochondrial respiration, difference from control: basal minus non-mitochondrial (rotenone); for ATP-linked respiration, difference from control: basal minus oligomycin
Method: Oxygen consumption rates (OCR) and extracellular acidification rates (ECAR) of HT-22 neuronal cells were performed on the XF-96 Extracellular Flux Analyzer (Seahorse Bioscience) using standard methods (Beeson et al., 2010). In brief, cells were cultured in 96 well Seahorse plates in DMEM high glucose media (Invitrogen) supplemented with 10% FBS, 10 mM HEPES, and 1% antibiotic-antimycotic (Invitrogen). The media was replaced with DMEM media supplemented with 25 mM glucose, 10 mM sodium pyruvate, 31 mM NaCl, and 2 mM glutamine at pH 7.4. Each of the four drug ports on the Seahorse sensor cartridge were filled with test compound (media only, 5 μM NQN-1, 10 μM VK3 or 12.5 μM MB), 10 μM oligomycin, 1 μM FCCP, and 5 μM rotenone, which were injected into each well at 20, 80, 110, and 135 min, respectively. The pmol/min OCR rate for each well (9-52 wells/group) was measured. Wells were excluded from the analysis if their OCR values surpassed the Tukey Outlier Rule. In order to standardize the OCR rates across wells, the average OCR value at 17 min (last time point prior to injection of the test compounds) for each experimental group was calculated, and set to 100. All OCR values are given as a percentage of this pre-treatment value. […]

[2] = Presence in mouse brain by LC-MS; format: in vivo; conditions: mice, i.p. daily for three weeks, brain 2 hours after final injection
Method: VK2 is synthesized in situ where it is needed. […] Utilizing small synthetic VK analog that can perform similarly to VK2 is of novelty for epileptic treatment. Mice were under I.P. daily injection of 2q for three weeks and their brains were harvested 2 hours after the final injection. The mouse brains were extracted with organic solvent. The presence and the level of 2q were determined using LC-MS techniques (FIG. 9). The presence of 2q was detected via mass spectrometry in the mice brain 2 hours after i.p. injections.

[3] = mouse blood chemistry, 50 mg/kg, 3 wks i.p., individual animals 1-3
[4] = mouse complete blood count, 50 mg/kg, 3 wks i.p., individual animals 1-3

## C#CCNC1=CC(=O)c2ccccc2C1=O [Compound 2h, 2-(prop-2-yn-1-ylamino)naphthalene-1,4-dione]
Corneal kindled seizures
  Avg seizure score: 3.75
  N/F (animals protected/animals tested): 2/4

## O=C1C=C(NCc2ccccc2)C(=O)c2ccccc21 [Compound 2j, 2-(benzylamino)naphthalene-1,4-dione]
[1]
  blood count and chemistry parameters versus vehicle: consistent with those of the vehicle control group
  weight loss, signs of pain or distress: no weight loss or outward signs of pain or distress
HT-22 neuronal cells
  basal cellular respiration, difference in OCR from control: −4.14±2.9
  basal mitochondrial respiration, difference from control: 9.09±3.13
  ATP-linked respiration, difference from control: 6.58±3.28
  ECAR (glycolysis), difference from control: 5.03±1.11

## O=C1C=C(NCc2cccc(Cl)c2)C(=O)c2ccccc21 [Compound 2q, 2-((3-chlorobenzyl)amino)naphthalene-1,4-dione]
[2]
  presence in brain (LC-MS): detected
[1]
  blood count and chemistry parameters versus vehicle: consistent with those of the vehicle control group
  weight loss, signs of pain or distress: no weight loss or outward signs of pain or distress
[1]; [3]
  ALP: 72 U/L and 80 U/L and 60 U/L
  ALT: 34 U/L and 28 U/L and 33 U/L
  AST: 89 U/L and 71 U/L and 78 U/L
  Albumin: 3 g/dL and 3.2 g/dL and 2.8 g/dL
  BUN: 19 mg/dL (2×) and 20 mg/dL
  Creatinine: 0.16 mg/dL and 0.23 mg/dL and 0.18 mg/dL
  Glucose: 195 mg/dL (2×) and 205 mg/dL
  Total Bilirubin: 0.20 mg/dL
  Total Protein: 5.2 g/dL and 5.3 g/dL and 4.9 g/dL
[1]; [4]
  BA: 0.01 K/uL and 0.05 K/uL and 0.02 K/uL
  EO: 0.10 K/uL and 0.17 K/uL and 0.01 K/uL
  HCT: 51.1% and 53.2% and 51.3%
  Hb: 13.9 g/dL (2×) and 14.5 g/dL
  LY: 3.30 K/uL and 5.14 K/uL and 2.45 K/uL
  MCH: 14.8 pg (2×) and 15.3 pg
  MCHC: 27.2 g/dL and 27.3 g/dL and 27.1 g/dL
  MCV: 54.4 fL and 56.2 fL and 54.8 fL
  MO: 0.32 K/uL and 0.43 K/uL and 0.35 K/uL
  MPV: 4.5 fL and 4.6 fL and 4.4 fL
  NE: 5.55 K/uL and 3.03 K/uL and 3.78 K/uL
  PLT: 1139 K/uL and 946 K/uL and 1050 K/uL
  RBC: 9.39 M/uL and 9.46 M/uL and 9.37 M/uL
  RDW: 17.8% and 17.7% and 17.4%
  WBC: 9.28 K/uL and 8.82 K/uL and 6.62 K/uL

## CC1=CC(=O)c2ccccc2C1=O [VK3, menadione, reference compound]
HT-22 neuronal cells
  basal cellular respiration, difference in OCR from control: 21.57±0.97
  basal mitochondrial respiration, difference from control: elevated but failed to reach statistical significance
  ATP-linked respiration, difference from control: 12.2±3.12
  ECAR (glycolysis), difference from control: 1.89±0.93

Source: patent publication US10391070B2, “Compositions and methods for treating neurological diseases or injury” (MUSC FOUNDATION FOR RESEARCH DEVELOPMENT, priority 2012, dated 2019)
